A short description of data set [1]: an = ratio of the nth substance listed. The settings on record: 298.15 K, 101 kPa, Liquid.
A short description of data set [2]: cn = amount concentration of the nth substance listed, in mol/dm3. To be noted: 298.15 K, 101 kPa, Liquid.

As usually defined, the mass density is the mass of a sample divided by its volume.

SMILES strings stand for the structures. ± gives the expanded uncertainty stated by the source.

Consider `NCC(=O)NCC(=O)NCC(=O)O` [glycylglycylglycine] + O, for which the mass density in data set [1] (a1 = 0.0099) was 1001 ± 0.28 kg/m3; in data set [1] (a1 = 0.0192), 1004.77 ± 0.29 kg/m3; in data set [1] (a1 = 0.0355) it was 1011.02 ± 0.31 kg/m3; in data set [1] (a1 = 0.0452), 1014.88 ± 0.32 kg/m3; in data set [1] (a1 = 0.0544), 1018.36 ± 0.33 kg/m3; in data set [1] (a1 = 0.0624), 1021.44 ± 0.34 kg/m3. The mass density in data set [1] (a1 = 0.0641) came to 1022.05 ± 0.34 kg/m3.
As to `[Br-].[K+]` [potassium bromide] + O, the values for the mass density in data set [2] (c1 = 1), in data set [2] (c1 = 2) and in data set [2] (c1 = 4) were 1080.52 ± 0.42 kg/m3, 1162.26 ± 0.63 kg/m3 and 1323.4 ± 1.1 kg/m3, respectively.
Taken in the same sequence, the figures for `CC(=O)[O-].[K+]` [potassium ethanoate] + O were 1043.58 ± 0.32 kg/m3, 1087.93 ± 0.43 kg/m3 and 1170.95 ± 0.64 kg/m3.
Taken in the same sequence, the figures for `[Cl-].[K+]` [potassium chloride] + O were 1042.84 ± 0.32 kg/m3, 1082.33 ± 0.42 kg/m3 and 1168.97 ± 0.63 kg/m3.
On to `O=C1CNC(=O)CN1` [2,5-diketopiperazine] + O, for which the mass density in data set [1] (a1 = 0.0003) was determined as 997.17 ± 0.29 kg/m3; in data set [1] (a1 = 0.0007), 997.34 ± 0.29 kg/m3; in data set [1] (a1 = 0.0009), 997.37 ± 0.29 kg/m3; in data set [1] (a1 = 0.0026) it was 997.92 ± 0.29 kg/m3; in data set [1] (a1 = 0.0053), 998.93 ± 0.28 kg/m3; in data set [1] (a1 = 0.0101), 1000.34 ± 0.28 kg/m3. In addition, the mass density in data set [1] (a1 = 0.0134) is reported as 1001.42 ± 0.29 kg/m3; in data set [1] (a1 = 0.0157), 1002.16 ± 0.29 kg/m3; in data set [1] (a1 = 0.0168), 1002.5 ± 0.29 kg/m3.
Consider `NCC(=O)NCC(=O)NCC(=O)NCC(=O)O` [glycylglycylglycylglycine] + O, for which the mass density in data set [1] (a1 = 0.0013) stood at 997.73 ± 0.29 kg/m3; in data set [1] (a1 = 0.0023) it was 998.04 ± 0.29 kg/m3; in data set [1] (a1 = 0.0031), 998.3 ± 0.29 kg/m3; in data set [1] (a1 = 0.0033) it was 998.38 ± 0.29 kg/m3; in data set [1] (a1 = 0.0036), 998.49 ± 0.29 kg/m3; in data set [1] (a1 = 0.0038), 998.55 ± 0.28 kg/m3. For the same compound, the mass density in data set [1] (a1 = 0.0039) was determined as 998.59 ± 0.28 kg/m3.
`O=C(O)CNCC(=O)O` [N-(carboxymethyl)glycine] + O: the mass density is 1035.94 ± 0.32 kg/m3 in data set [1] (a1 = 0.1001); 1053.34 ± 0.36 kg/m3 in data set [1] (a1 = 0.1553); 1066.16 ± 0.4 kg/m3 in data set [1] (a1 = 0.193); 1072.41 ± 0.41 kg/m3 in data set [1] (a1 = 0.2113); 1074.86 ± 0.42 kg/m3 in data set [1] (a1 = 0.2201); 1076.92 ± 0.42 kg/m3 in data set [1] (a1 = 0.2258).
With `NCC(=O)O` [2-aminoacetic acid] + O, the mass density was found to be 1039.02 ± 0.39 kg/m3 in data set [1] (a1 = 0.1091); 1053.89 ± 0.42 kg/m3 in data set [1] (a1 = 0.1535); 1065.41 ± 0.46 kg/m3 in data set [1] (a1 = 0.1933); 1075.18 ± 0.48 kg/m3 in data set [1] (a1 = 0.2231); 1079.4 ± 0.49 kg/m3 in data set [1] (a1 = 0.239); 1080.36 ± 0.5 kg/m3 in data set [1] (a1 = 0.244). Besides, in data set [1] (a1 = 0.2509), the mass density worked out at 1082.99 ± 0.5 kg/m3.

Values taken from the NIST ThermoML archive (doi:10.1016/j.jct.2006.11.014).
